According to ChEMBL document CHEMBL1134418, “Synthesis of tetrocarcin derivatives with specific inhibitory activity towards Bcl-2 functions” (2001):
≈ marks a conversion by molar mass, not a printed value.

Columns and labels:
Bacillus subtilis = experiment: Antibacterial activity was evaluated against Bacillus subtilis; type: functional
HeLa [1] = experiment: Evaluated for HeLa cell viability without anti-Fas antibody treatment by XTT assay; 3 fold activation concentration (AC3); type: functional, Homo sapiens
[2] = biological target: Apoptosis regulator Bcl-2 (Homo sapiens) (UniProt P10415); experiment: Effect on DEVD cleavage by DEVDase assay without anti-Fas antibody using Bcl-2 overexpressing HeLa cells; 3 fold activation concentration (AC3); type: functional, cell-based
Chain of Apoptosis regulator Bcl-2 (Homo sapiens) (P10415 whole entry): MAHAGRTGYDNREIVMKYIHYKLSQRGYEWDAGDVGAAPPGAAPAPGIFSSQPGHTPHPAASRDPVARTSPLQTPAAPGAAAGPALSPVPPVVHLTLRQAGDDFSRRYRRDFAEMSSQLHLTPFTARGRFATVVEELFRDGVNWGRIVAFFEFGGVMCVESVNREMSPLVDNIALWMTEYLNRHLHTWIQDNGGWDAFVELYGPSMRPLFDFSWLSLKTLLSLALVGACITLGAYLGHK

[3] = biological target: Apoptosis regulator Bcl-2 (Homo sapiens) (UniProt P10415); experiment: Effect on DEVD cleavage by DEVDase assay with anti-Fas antibody treatment using Bcl-2 overexpressing HeLa cells; 3 fold activation concentration (AC3); type: functional, cell-based
HeLa [4] = experiment: Evaluated for HeLa cell viability with anti-Fas antibody treatment by XTT assay; 3 fold activation concentration (AC3); type: functional, Homo sapiens

| Compound | MIC (Bacillus subtilis) [µg/mL] | AC3 (HeLa [1]) [µM] | AC3 [2] [µM] | AC3 [3] [µM] | AC3 (HeLa [4]) [µM] |
| --- | --- | --- | --- | --- | --- |
| COC(=O)NC1[C@H](C)O[C@@H](O[C@H]2C/C=C(\C)[C@@H]3C=C[C@@H]4[C@@H](OC5C=C[C@H](O)[C@H](C)O5)[C@@H](C)C[C@H](C)[C@H]4[C@]3(C)/C(O)=C3\C(=O)O[C@]4(CC(C=O)=C[C@H](OC(C)=O)[C@H]4/C=C\2C)C3=O)CC1(C)[N+](=O)[O-] (stereo not given in full) | > 50 | >10 | > 10 | 3.6 | 3.7 |
| COC(=O)NC1[C@H](C)O[C@@H](O[C@H]2C/C=C(\C)[C@@H]3C=C[C@@H]4[C@@H](OC5C[C@H](O[C@@H]6CCC(OC7C[C@H](O)[C@@H](OC8CC[C@@H](O)C(C)O8)C(C)O7)[C@H](C)O6)[C@@H](OC(C)=O)C(C)O5)[C@@H](C)C[C@H](C)[C@H]4[C@]3(C)/C(O)=C3\C(=O)O[C@]4(CC(C=O)=CC(O)[C@H]4/C=C\2C)C3=O)CC1(C)[N+](=O)[O-] (stereo not given in full) | < 0.049 | 4 | 7.7 | 2.2 | 1.4 |
| COC(=O)NC1[C@H](C)O[C@@H](O[C@H]2C/C=C(\C)[C@@H]3C=C[C@@H]4[C@@H](O)[C@@H](C)C[C@H](C)[C@H]4[C@]3(C)/C(O)=C3\C(=O)O[C@]4(CC(C=O)=C[C@H](OC(C)=O)[C@H]4/C=C\2C)C3=O)CC1(C)[N+](=O)[O-] (stereo not given in full) | > 50 | >10 | > 10 | 8.4 | >10 |
| COC(=O)NC1[C@H](C)O[C@@H](O[C@H]2C/C=C(\C)[C@@H]3C=C[C@@H]4[C@@H](OC5(C)O[C@@H]6OC(COC(C)=O)[C@@H](OC(C)=O)C(OC(C)=O)[C@@H]6O5)[C@@H](C)C[C@H](C)[C@H]4[C@]3(C)/C(O)=C3\C(=O)O[C@]4(CC(C=O)=C[C@H](OC(C)=O)[C@H]4/C=C\2C)C3=O)CC1(C)[N+](=O)[O-] (stereo not given in full) | > 50 | >10 | > 10 | 5.7 | 1.8 |
| CC[Si](CC)(CC)OO[C@H]1C=CC(O[C@@H]2[C@H]3C=C[C@H]4/C(C)=C/C[C@H](O[C@H]5CC(C)([N+](=O)[O-])C(NC(=O)OC)[C@H](C)O5)/C(C)=C\[C@@H]5[C@@H](OC(C)=O)C=C(C=O)C[C@]56OC(O)=C(C(=O)[C@@]4(C)[C@@H]3[C@@H](C)C[C@@H]2C)C6=O)O[C@H]1C (stereo not given in full) | > 50 | >10 | > 10 | 4.9 | 4.3 |
| COC(=O)NC1[C@H](C)O[C@@H](O[C@H]2C/C=C(\C)[C@@H]3C=C[C@@H]4[C@@H](O[C@H]5CCCCO5)[C@@H](C)C[C@H](C)[C@H]4[C@]3(C)/C(O)=C3\C(=O)O[C@]4(CC(C=O)=C[C@H](OC(C)=O)[C@H]4/C=C\2C)C3=O)CC1(C)[N+](=O)[O-] (stereo not given in full) | 6.3 (≈ 6.93 µM) | 4.8 | 4.9 | 3.9 | 3.9 |
| COC(=O)NC1[C@H](C)O[C@@H](O[C@H]2C/C=C(\C)[C@@H]3C=C[C@@H]4[C@@H](O[C@@H]5CC(OC(C)=O)C(OC(C)=O)[C@H](C)O5)[C@@H](C)C[C@H](C)[C@H]4[C@]3(C)/C(O)=C3\C(=O)O[C@]4(CC(C=O)=C[C@H](OC(C)=O)[C@H]4/C=C\2C)C3=O)CC1(C)[N+](=O)[O-] (stereo not given in full) | 16.7 (≈ 16.1 µM) | >10 | > 10 | 2.1 | 1.1 |
| COC(=O)NC1[C@H](C)O[C@@H](O[C@H]2C/C=C(\C)[C@@H]3C=C[C@@H]4[C@@H](O)[C@@H](C)C[C@H](C)[C@H]4[C@]3(C)/C(O)=C3\C(=O)O[C@]4(CC(C=O)=C[C@H](O)[C@H]4/C=C\2C)C3=O)CC1(C)[N+](=O)[O-] (stereo not given in full) | > 50 | >10 | > 10 | > 10 | >10 |
| COC(=O)NC1[C@H](C)O[C@@H](O[C@H]2C/C=C(\C)[C@@H]3C=C[C@@H]4[C@@H](OCc5ccc(OC)cc5)[C@@H](C)C[C@H](C)[C@H]4[C@]3(C)/C(O)=C3\C(=O)O[C@]4(CC(C=O)=C[C@H](OC(C)=O)[C@H]4/C=C\2C)C3=O)CC1(C)[N+](=O)[O-] (stereo not given in full) | > 50 | 5.8 | 4.8 | 3.8 | 7.6 |
| COCCOCCOCC(=O)O[C@@H]1[C@H]2C=C[C@H]3/C(C)=C/C[C@H](O[C@H]4CC(C)([N+](=O)[O-])C(NC(=O)OC)[C@H](C)O4)/C(C)=C\[C@@H]4[C@@H](O[Si](C)(C)C(C)(C)C)C=C(C=O)C[C@]45OC(O)=C(C(=O)[C@@]3(C)[C@@H]2[C@@H](C)C[C@@H]1C)C5=O (stereo not given in full) | > 50 | 6.4 | > 10 | 9.5 | 3.9 |
| COC(=O)NC1[C@H](C)O[C@@H](O[C@H]2C/C=C(\C)[C@@H]3C=C[C@@H]4[C@@H](O[Si](C)(C)C(C)(C)C)[C@@H](C)C[C@H](C)[C@H]4[C@]3(C)/C(O)=C3\C(=O)O[C@]4(CC(C=O)=C[C@H](O[Si](C)(C)C(C)(C)C)[C@H]4/C=C\2C)C3=O)CC1(C)[N+](=O)[O-] (stereo not given in full) | > 50 | >10 | > 10 | > 10 | >10 |
| COC(=O)NC1[C@H](C)O[C@@H](O[C@H]2C/C=C(\C)[C@@H]3C=C[C@@H]4[C@@H](O[Si](C)(C)C(C)(C)C)[C@@H](C)C[C@H](C)[C@H]4[C@]3(C)/C(O)=C3\C(=O)O[C@]4(CC(C=O)=C[C@H](O)[C@H]4/C=C\2C)C3=O)CC1(C)[N+](=O)[O-] (stereo not given in full) | > 50 | 2 | 1.8 | 1.3 | 2 |
| COC(=O)NC1[C@H](C)O[C@@H](O[C@H]2C/C=C(\C)[C@@H]3C=C[C@@H]4[C@@H](O)[C@@H](C)C[C@H](C)[C@H]4[C@]3(C)/C(O)=C3\C(=O)O[C@]4(CC(C=O)=C[C@H](O[Si](C)(C)C(C)(C)C)[C@H]4/C=C\2C)C3=O)CC1(C)[N+](=O)[O-] (stereo not given in full) | > 50 | >10 | > 10 | > 10 | >10 |
| COCCOCCOCC(=O)O[C@@H]1[C@H]2C=C[C@H]3/C(C)=C/C[C@H](O[C@H]4CC(C)([N+](=O)[O-])C(NC(=O)OC)[C@H](C)O4)/C(C)=C\[C@@H]4[C@@H](O)C=C(C=O)C[C@]45OC(O)=C(C(=O)[C@@]3(C)[C@@H]2[C@@H](C)C[C@@H]1C)C5=O (stereo not given in full) | > 50 | >10 | > 10 | > 10 | >10 |
| COC(=O)NC1[C@H](C)O[C@@H](O[C@H]2C/C=C(\C)[C@@H]3C=C[C@@H]4[C@@H](OC5C[C@H](O[C@@H]6CCC(OC7C[C@H](O)[C@@H](OC8CC[C@@H](O)C(C)O8)C(C)O7)[C@H](C)O6)[C@@H](OC(C)=O)C(C)O5)[C@@H](C)C[C@H](C)[C@H]4[C@]3(C)C(=O)C3=C(OC)[C@@]4(CC(C=O)=CC(O)[C@H]4/C=C\2C)OC3=O)CC1(C)[N+](=O)[O-] (stereo not given in full) | 5.2 (≈ 3.92 µM) | 1.5 | 2.5 | 1 | 0.8 |
